These results are taken from patent US20250205197A1.

“Also recorded” adds a separate entry of the source. Some results are limits rather than exact numbers.

Data set [1] has as its system HepG2 cells. As to the kind of experiment: PrestoBlue cell viability assay in HepG2 cells. Type of data set: cell-based, human. Conditions: 48 hours incubation. The text has this:
Methanol or DMSO were used as vehicles, at concentrations 0, 0.001, 0.01, 0.1, and 1% (methanol) or 0, 0.001, 0.01, 0.1, and 1% (DMSO), respectively. […] Non-treated cells were assigned 100% viability. Bar graphs show the mean+/−SD, n=3.
Non-treated cells were assigned 100% viability. Bar graphs show the mean+/−SD, n=3.

Data set [2] in a line: Mouse pharmacokinetic (PK) evaluation of drug metabolism to psilocin. The note with it: mice. The data set is classed as in vivo, C57Bl/6 mice.
The nature of data set [3]: In vitro metabolic stability and psilocin-release assays, statements covering several fractions. Type of data set: in vitro ADME, human. From the text:
(§1) A fundamental evaluation in drug development is the assessment of absorption, distribution, metabolism, excretion, and pharmacokinetics (ADME/PK) (Eddershaw et al., 2000, Drug Discovery Today 5(9): 409-414). […] Drug stability upon exposure to human liver microsomes and liver S9 cellular fractions is a common in vitro assay to approximate in vivo, liver-based drug metabolism (Richardson et al., 2016 Drug Metabolism Letters 10:83-90). First-pass metabolism is also often approximated in vitro using intestinal microsome and cellular S9 fractions (Hatley et al., 2017, Biopharmaceuticals & Drug Disposition, 38(2):155-160). Further, it is well known that human serum, and particularly circulating serum esterases can contribute to systemic drug metabolism (Williams, F M 1987, Pharmacology and Therapeutics, 34:99-109). Many pharmacological agents are classified as prodrugs, as they undergo metabolic transformation in vivo upon administration to release the active drug compound into the systemic compartment (Zawilska J B, et al. 2013, Pharmacological Reports, 65:1-14). Psilocybin, a serotonergic psychedelic agent, is well known prodrug that is metabolized into the psychoactive product, psilocin (Dinis-Oliveira, R J 2017, Drug Metabolism Reviews, 49(1):84-91). […] Supernatants were analyzed for the presence of candidate prodrugs (parent molecule) and psilocin (the predicted metabolite) using Orbitrap LC-MS (Thermo Scientific) using previously described methods (Menéndez-Perdomo et al., 2021, J Mass Spectrom, 56: e4683). […] Assay concentrations (μM) of both parent ‘prodrug’ molecule and psilocin metabolite, as quantified through LC-MS using routine standard curve procedures, were plotted as functions of assay time (minutes). The metabolism rate (T1/2) was determined from the metabolism curve plot using the one phase decay feature of GraphPad PRISM software (Version 9.2.0). The quantity of parent prodrug at time zero was set as 100%. […]

Data set [4] deals with T1, 5-HT2A receptor (Mus musculus, UniProt P35363).
T1 construct: tissue Charles River; host or cells: living C57BL/6-Elite mice (brain, in vivo)
T1 sequence (P35363 whole entry): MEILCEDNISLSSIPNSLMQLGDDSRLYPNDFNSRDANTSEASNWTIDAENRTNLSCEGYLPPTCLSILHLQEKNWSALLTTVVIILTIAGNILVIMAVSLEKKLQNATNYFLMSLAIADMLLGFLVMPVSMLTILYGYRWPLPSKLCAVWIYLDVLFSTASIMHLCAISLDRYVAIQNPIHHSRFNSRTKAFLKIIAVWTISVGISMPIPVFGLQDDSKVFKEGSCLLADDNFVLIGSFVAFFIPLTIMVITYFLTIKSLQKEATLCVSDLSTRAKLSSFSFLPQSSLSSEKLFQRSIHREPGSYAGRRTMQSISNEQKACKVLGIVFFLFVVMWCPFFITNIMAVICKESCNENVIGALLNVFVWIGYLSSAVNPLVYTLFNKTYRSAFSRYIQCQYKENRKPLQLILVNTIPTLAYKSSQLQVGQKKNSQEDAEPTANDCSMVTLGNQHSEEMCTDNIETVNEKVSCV
As to the kind of experiment: Drug-induced Head Twitch Response (HTR) in mice. Type of data set: in vivo. Conditions: i.p. 1 mg/kg; for Head Twitch Response (HTR): 15-to-30-minute window following administration, relative to vehicle.

Data set [5] is described as follows: In vitro metabolic stability assay, human AB serum. Type of data set: in vitro ADME. The note with it: 10% human AB serum.
Text: as §1

Data set [6] addresses T2, 5-HT1A receptor (Homo sapiens, UniProt P08908).
T2 construct: host or cells: CHO-K1 (co-expressing Ga15)
T2 sequence (P08908 1-422): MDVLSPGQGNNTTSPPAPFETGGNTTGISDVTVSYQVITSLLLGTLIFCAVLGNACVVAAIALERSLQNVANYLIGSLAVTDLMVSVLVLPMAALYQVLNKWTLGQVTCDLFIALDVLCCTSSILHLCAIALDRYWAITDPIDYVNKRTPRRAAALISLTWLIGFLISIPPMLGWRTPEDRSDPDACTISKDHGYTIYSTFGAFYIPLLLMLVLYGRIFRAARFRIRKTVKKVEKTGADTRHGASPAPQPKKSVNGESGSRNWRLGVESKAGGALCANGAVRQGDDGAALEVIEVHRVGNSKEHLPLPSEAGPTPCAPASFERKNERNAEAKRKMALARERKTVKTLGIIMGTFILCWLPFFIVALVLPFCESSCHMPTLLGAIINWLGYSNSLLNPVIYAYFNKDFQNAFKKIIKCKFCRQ
As to the kind of experiment: cAMP-Glo assay of 5-HT1A receptor modulation, CHO-K1/5-HT1A/Ga15 vs CHO-K1/Ga15 cells. Type of data set: cell-based. The note with it: for 5-HT1A receptor modulation (cAMP, +5-HT1A vs −5-HT1A cultures): forskolin-stimulated cells, 20 minutes treatment; for cAMP levels with increasing ligand: +5-HT1A cells stimulated with forskolin, control ligands.

Data set [7] in a line: Solubility of the salt in water.
Data set [8] can be described thus: In vitro metabolic stability assay, human liver microsomes. Conditions: HLM fraction, 37° C., NADPH. Type of data set: in vitro ADME.
Text: as §1, with “38(2):155-160).” for “38(2):155-160). Further, it is well known that human serum, and particularly circulating serum esterases can contribute to systemic drug metabolism (Williams, F M 1987, Pharmacology and Therapeutics, 34:99-109). Many pharmacological agents are classified as prodrugs, as they undergo metabolic transformation in vivo upon administration to release the active drug compound into the systemic compartment (Zawilska J B, et al. 2013, Pharmacological Reports, 65:1-14). Psilocybin, a serotonergic psychedelic agent, is well known prodrug that is metabolized into the psychoactive product, psilocin (Dinis-Oliveira, R J 2017, Drug Metabolism Reviews, 49(1):84-91).”

The nature of data set [9]: In vitro metabolic stability assay, human liver S9 fractions. Conditions: HLS9 fraction, 37° C., NADPH. The data set is classed as in vitro ADME.
Text: as §1, with “38(2):155-160).” for “38(2):155-160). Further, it is well known that human serum, and particularly circulating serum esterases can contribute to systemic drug metabolism (Williams, F M 1987, Pharmacology and Therapeutics, 34:99-109). Many pharmacological agents are classified as prodrugs, as they undergo metabolic transformation in vivo upon administration to release the active drug compound into the systemic compartment (Zawilska J B, et al. 2013, Pharmacological Reports, 65:1-14). Psilocybin, a serotonergic psychedelic agent, is well known prodrug that is metabolized into the psychoactive product, psilocin (Dinis-Oliveira, R J 2017, Drug Metabolism Reviews, 49(1):84-91).”

Data set [10] deals with 5-HT2A receptor (Homo sapiens, UniProt P28223). As to the kind of experiment: [3H]ketanserin radioligand competition binding assay (SPA). Conditions: [3H]ketanserin competition.
5-HT2A receptor (Homo sapiens, UniProt P28223), sequence (P28223 whole entry): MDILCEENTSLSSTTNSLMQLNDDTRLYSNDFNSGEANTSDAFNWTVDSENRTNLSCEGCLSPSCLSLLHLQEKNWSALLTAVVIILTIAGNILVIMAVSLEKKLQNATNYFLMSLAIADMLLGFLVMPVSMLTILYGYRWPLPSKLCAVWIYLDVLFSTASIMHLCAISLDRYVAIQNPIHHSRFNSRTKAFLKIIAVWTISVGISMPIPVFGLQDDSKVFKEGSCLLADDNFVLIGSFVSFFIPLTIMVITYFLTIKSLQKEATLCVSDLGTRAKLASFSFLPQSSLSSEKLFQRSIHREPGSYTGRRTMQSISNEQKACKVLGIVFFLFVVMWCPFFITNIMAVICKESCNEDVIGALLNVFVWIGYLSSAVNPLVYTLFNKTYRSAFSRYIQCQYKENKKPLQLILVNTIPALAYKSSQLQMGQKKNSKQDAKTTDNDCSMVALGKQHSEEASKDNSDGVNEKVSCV
The nature of data set [11]: Stability assay in enzyme-free control buffer. Conditions: negative control buffer, pH 7.4. Type of data set: in vitro ADME.
Text: as §1, with “38(2):155-160).” for “38(2):155-160). Further, it is well known that human serum, and particularly circulating serum esterases can contribute to systemic drug metabolism (Williams, F M 1987, Pharmacology and Therapeutics, 34:99-109). Many pharmacological agents are classified as prodrugs, as they undergo metabolic transformation in vivo upon administration to release the active drug compound into the systemic compartment (Zawilska J B, et al. 2013, Pharmacological Reports, 65:1-14). Psilocybin, a serotonergic psychedelic agent, is well known prodrug that is metabolized into the psychoactive product, psilocin (Dinis-Oliveira, R J 2017, Drug Metabolism Reviews, 49(1):84-91).”

As for `CN(C)CCc1c[nH]c2cccc(OC(=O)OCc3ccccc3)c12` [B(II)], in data set [1], the “CD50 (cytotoxicity, cell viability)” value came out at 65.9 µM. Further, the “time the derivative resides in plasma post-dosing” value in data set [2] (oral 10 mg/kg) is “up to 4 hours”. For the same compound, the dissociation to psilocin entry in data set [3] (HLM, HLS9, HIM, HIS9, AB serum, buffer control) is reported as “did not readily dissociate to psilocin under any conditions”. Moreover, in data set [4], the “Head Twitch Response (HTR)” value is listed as “elicit head twitching”. Moreover, the “stability / dissociation to psilocin in serum” value (“stability / dissociation” for short) in [5] was “failed completely to dissociate”.

Regarding `CN(C)CCc1c[nH]c2cccc(OC(=O)c3ccc(Br)cc3)c12` [C(I)], the “5-HT1A receptor modulation (cAMP, +5-HT1A vs −5-HT1A cultures)” value in data set [6] was “mild receptor modulation at higher ligand concentrations”. For the same compound, in data set [4], the “Head Twitch Response (HTR)” value is given as “Elevated incidences of HTR”.

Take `COCCOCCOCC(=O)Oc1cccc2[nH]cc(CCN(C)C)c12` [C(III)]: the “5-HT1A receptor modulation (cAMP, +5-HT1A vs −5-HT1A cultures)” value in [6] is “significant receptor modulation”. Moreover, in data set [4], the “Head Twitch Response (HTR)” value is “Elevated incidences of HTR”.

With `CN(C)CCc1c[nH]c2cccc(OC(=O)CC3CC3)c12` [C(IV)], in data set [6], the “5-HT1A receptor modulation (cAMP, +5-HT1A vs −5-HT1A cultures)” value is “significant receptor modulation”. Moreover, in data set [4], the “Head Twitch Response (HTR)” value is reported as “Elevated incidences of HTR”.

Take `COc1ccc(C(=O)Oc2cccc3[nH]cc(CCN(C)C)c23)cc1` [C(V)]: in [6], the “5-HT1A receptor modulation (cAMP, +5-HT1A vs −5-HT1A cultures)” value was “mild receptor modulation at higher ligand concentrations”. Also, the “Head Twitch Response (HTR)” value in [4] is given as “Elevated incidences of HTR”.

Take `CN(C)CCc1c[nH]c2cccc(OC(=O)c3c(F)c(F)c(F)c(F)c3F)c12` [C(VI)]: in data set [6], the “5-HT1A receptor modulation (cAMP, +5-HT1A vs −5-HT1A cultures)” value was “no receptor modulation at higher ligand concentrations”. Further, the “Head Twitch Response (HTR)” value in data set [4] was “Elevated incidences of HTR”.

In the case of `CN(C)CCc1c[nH]c2cccc(OC(=O)c3cccc(C(=O)Oc4cccc5[nH]cc(CCN(C)C)c45)c3)c12` [C(VII)], in data set [6], the “5-HT1A receptor modulation (cAMP, +5-HT1A vs −5-HT1A cultures)” value is on record as “no significant receptor modulation”. The “Head Twitch Response (HTR)” value in data set [4] is “Elevated incidences of HTR”.

As to `COc1ccc(C(=O)Oc2cccc3[nH]cc(CCN(C)C)c23)cc1` [C(Va1)], in [7], the solubility in water is given as no less than 10 mg per mL.

As to `COc1ccc(C(=O)Oc2cccc3[nH]cc(CCN(C)C)c23)cc1.O=C(O)C(O)C(O)C(=O)O` [C(Va2)], in data set [7], the solubility in water is reported as no less than 10 mg per mL.

As for `COc1ccc(C(=O)Oc2cccc3[nH]cc(CCN(C)C)c23)cc1` [C(Vb1)], in [7], the solubility in water is listed as less than 1 mg in a mL.

`COC(=O)c1cccc(C(=O)Oc2cccc3[nH]cc(CCN(C)C)c23)c1` [C(XLIII)]: the “5-HT1A receptor modulation (cAMP, +5-HT1A vs −5-HT1A cultures)” value in data set [6] is on record as “receptor modulation at higher ligand concentrations”.

For the compound `CN(C)CCc1c[nH]c2cccc(OC(=O)c3cccc4c3OCCO4)c12` [C(XX)], the “5-HT1A receptor modulation (cAMP, +5-HT1A vs −5-HT1A cultures)” value in data set [6] is recorded as “significant receptor modulation”. Further, in [4], the “Head Twitch Response (HTR)” value is “Elevated incidences of HTR”.

Turning to `CN(C)CCc1c[nH]c2cccc(OC(=O)SCc3ccccc3)c12` [E(VI)], the “5-HT1A receptor modulation (cAMP, +5-HT1A vs −5-HT1A cultures)” value in [6] is “mild receptor modulation at higher ligand concentrations”. The “detection of the derivative in plasma” value was “neither B(II) nor E(VI) were detected in plasma” in [2] (oral 1 mg/kg); “never detected at any timepoint” in [2] (oral 3 mg/kg and 10 mg/kg). In addition, the conversion to psilocin result in [3] (liver fractions and serum) is “quickly converted to psilocin in liver fractions and serum”. Also, the figures for the “half-life (T1/2)” value in [8] and in data set [9] were 6 min and 5 min, respectively. Further, in data set [4], the “Head Twitch Response, E(VI) compared to B(II)” value is listed as “elevated response”. Further, the “Head Twitch Response (HTR)” value in data set [4] (1 mg/kg) is listed as “Elevated incidences of HTR; also recorded: elicit head twitching”. The “stability / dissociation” value in data set [5] is given as “nearly completely disappears”.

`CN(C)CCc1c[nH]c2cccc(OC(=O)SCc3ccccc3)c12.Cl` [E(VIa1)]: the solubility in water in data set [7] is no less than 10 mg per mL.

Turning to `CN(C)CCc1c[nH]c2cccc(OC(=O)SCc3ccccc3)c12` [E(VIb1)], the solubility in [7] was greater than 10000 µg/mL.

As to `CN(C)CCc1c[nH]c2cccc(O)c12` [psilocin, reference compound], in [6], the “cAMP levels with increasing ligand” value is given as “reduction in cAMP levels”. For the same compound, the “competition binding at 5-HT2A (controls, in words)” value in [10] was “binding”.

On to `CN(C)CCc1c[nH]c2cccc(OP(=O)(O)O)c12` [psilocybin], for which, in data set [3] (liver fractions (HLM, HLS9)), the “stability / conversion to psilocin in liver fractions” value is “stable in liver fractions with no conversion to psilocin”. Further, in data set [11], the “stability in assay buffer” value is reported as “stability of psilocybin was confirmed in assay buffer”. In addition, the “stability / dissociation” value in [5] was “stable in serum with no conversion to psilocin”.

Take `NCCc1c[nH]c2ccc(O)cc12` [serotonin, reference compound]: the “cAMP levels with increasing ligand” value in data set [6] is listed as “reduction in cAMP levels”.

With `N[C@@H](Cc1c[nH]c2ccccc12)C(=O)O` [tryptophan, reference compound], the “cAMP levels with increasing ligand” value in data set [6] is on record as “no reduction in cellular cAMP levels”. In addition, in data set [10], the “competition binding at 5-HT2A (controls, in words)” value is on record as “no binding”.
